Reference: ChEMBL document CHEMBL5365478, “Structure-Based Design and Synthesis of Stapled 10Panx1 Analogues for Use in Cardiovascular Inflammatory Diseases” (J Med Chem, 2023)
Active and inactive are the calls of the source. No cut-off for these calls is given here. Bridge positions count the residues as written; N and C are the ends. Square brackets hold non-standard residues; d marks the D form. Triazole bridges read from a SMILES are 1,4-linked. Peptide text beside a SMILES is read from it. Lys(N3) = [N-]=[N+]=NCCCC[C@H](N)C(=O)O; Orn(N3) = [N-]=[N+]=NCCC[C@H](N)C(=O)O; Hpra = C#CCC[C@H](N)C(=O)O; Pra = C#CC[C@H](N)C(=O)O; Ahx = NCCCCCC(=O)O

Columns and labels:
[1] = tested on: EA.hy 926; assay: Cytotoxicity against human EA.hy 926 cells at 12.5 to 100 uM incubated for 30 mins with compound in HOS solution by LDH assay; assay type: toxicity, cell-based; conditions: ea.hy 926, 0.5 h, dose 12.5-100 µM
[2] = target: Pannexin-1 (Homo sapiens) (UniProt Q96RD7); assay: Inhibition of PANX1 in human EA.hy 926 cells assessed as reduction in HOS-induced ATP release at 12.5 to 100 uM preincubated for 10 mins followed by HOS solution addition and measured after 30 mins by bioluminescence analysis; assay type: cell-based; conditions: dose 12.5-100 µM, time 40.0 min
Pannexin-1 (Homo sapiens), sequence (Q96RD7 whole entry): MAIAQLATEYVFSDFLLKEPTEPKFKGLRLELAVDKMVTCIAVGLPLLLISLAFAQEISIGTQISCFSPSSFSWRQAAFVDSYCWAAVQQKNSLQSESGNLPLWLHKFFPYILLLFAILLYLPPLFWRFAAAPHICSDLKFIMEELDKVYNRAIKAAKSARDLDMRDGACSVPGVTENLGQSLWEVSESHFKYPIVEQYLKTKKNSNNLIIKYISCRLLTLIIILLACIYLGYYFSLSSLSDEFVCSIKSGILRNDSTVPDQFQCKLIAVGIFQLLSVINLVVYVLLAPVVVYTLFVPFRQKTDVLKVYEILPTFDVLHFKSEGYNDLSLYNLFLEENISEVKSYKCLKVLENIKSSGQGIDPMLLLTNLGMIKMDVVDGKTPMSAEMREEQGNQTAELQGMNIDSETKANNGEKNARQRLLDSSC

[3] = Stability in PBS at pH 7.4 assessed as conserved alpha-helical profile at 200 uM at 20 to 90 degreeC by CD spectra analysis; assay type: physicochemical; conditions: buffer, pH 7.4, 200 µM
[4] = tested on: B16-BL6; assay: Cytotoxicity against mouse B16-BL6 cells at 6.25 to 100 uM incubated for 30 mins with compound in HOS solution by LDH assay; assay type: toxicity, cell-based; conditions: b16-bl6, 0.5 h, dose 6.25-100 µM
[5] = target: Pannexin-1 (Rattus norvegicus) (UniProt P60570); assay: Inhibition of PANX1 in rat H9C2 cells assessed as reduction in HOS-induced ATP release at 12.5 to 100 uM preincubated for 10 mins followed by HOS solution addition and measured after 30 mins by bioluminescence analysis; assay type: cell-based; conditions: dose 12.5-100 µM, time 40.0 min
Pannexin-1 (Rattus norvegicus), sequence (P60570 whole entry): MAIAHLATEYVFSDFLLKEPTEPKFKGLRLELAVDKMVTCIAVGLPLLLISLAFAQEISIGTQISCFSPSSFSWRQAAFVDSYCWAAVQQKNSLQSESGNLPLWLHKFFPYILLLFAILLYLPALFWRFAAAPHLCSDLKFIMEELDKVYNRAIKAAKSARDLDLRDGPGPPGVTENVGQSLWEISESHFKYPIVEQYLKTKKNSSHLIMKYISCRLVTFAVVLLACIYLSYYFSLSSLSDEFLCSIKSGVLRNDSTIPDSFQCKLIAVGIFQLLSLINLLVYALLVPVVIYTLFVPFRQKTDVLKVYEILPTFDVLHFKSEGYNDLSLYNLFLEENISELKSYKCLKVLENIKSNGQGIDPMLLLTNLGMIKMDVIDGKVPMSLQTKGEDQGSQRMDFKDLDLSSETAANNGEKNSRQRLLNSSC

[6] = tested on: EA.hy 926; assay: Antiinflammatory activity in TNF-alpha stimulated human EA.hy926 cells cocultured with human THP-1 cells assessed as inhibition of monocyte adhesion at 100 uM incubated for 15 mins followed by adhesion for 2 hrs; assay type: functional, cell-based; conditions: time 135.0 min
[7] = target: Pannexin-1 (Mus musculus) (UniProt Q9JIP4); assay: Inhibition of PANX1 in mouse B16-BL6 cells assessed as reduction in HOS-induced ATP release at around 10 nM preincubated for 10 mins followed by HOS solution addition and measured after 30 mins by bioluminescence analysis; assay type: cell-based; conditions: time 40.0 min
Pannexin-1 (Mus musculus), sequence (Q9JIP4 whole entry): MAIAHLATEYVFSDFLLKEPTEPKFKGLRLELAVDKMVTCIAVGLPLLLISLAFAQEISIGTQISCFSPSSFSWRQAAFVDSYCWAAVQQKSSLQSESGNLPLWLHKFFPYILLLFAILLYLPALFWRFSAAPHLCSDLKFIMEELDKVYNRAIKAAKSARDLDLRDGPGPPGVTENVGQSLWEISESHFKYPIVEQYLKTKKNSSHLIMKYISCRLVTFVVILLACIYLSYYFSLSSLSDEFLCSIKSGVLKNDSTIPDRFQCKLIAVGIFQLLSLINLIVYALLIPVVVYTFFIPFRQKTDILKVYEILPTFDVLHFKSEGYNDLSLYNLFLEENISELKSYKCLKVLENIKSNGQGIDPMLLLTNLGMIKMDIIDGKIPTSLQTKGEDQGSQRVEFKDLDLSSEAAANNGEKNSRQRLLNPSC

[8] = target: Pannexin-1 (Mus musculus) (UniProt Q9JIP4); assay: Inhibition of PANX1 in mouse B16-BL6 cells assessed as reduction in HOS-induced Yo-Pro-1 uptake by measuring reduction in green fluorescence at 12.5 uM preincubated for 10 mins followed by HOS solution addition and measured after 30 mins by fluorescence based analysis; assay type: cell-based; conditions: time 40.0 min
[9] = target: Pannexin-1 (Mus musculus) (UniProt Q9JIP4); assay: Inhibition of PANX1 in mouse B16-BL6 cells assessed as reduction in HOS-induced ATP release preincubated for 10 mins followed by HOS solution addition and measured after 30 mins by bioluminescence analysis; assay type: cell-based; conditions: dose 6.25-400 µM, time 40.0 min
[10] = tested on: B16-BL6; assay: Cytotoxicity against mouse B16-BL6 cells at 1.56 to 100 uM incubated for 30 mins with compound in HOS solution by LDH assay; assay type: toxicity, cell-based; conditions: b16-bl6, 0.5 h, dose 1.56-100 µM
[11] = target: Pannexin-1 (Mus musculus) (UniProt Q9JIP4); assay: Inhibition of PANX1 in mouse B16-BL6 cells assessed as reduction in HOS-induced ATP release at 100 uM preincubated for 10 mins followed by HOS solution addition and measured after 30 mins by bioluminescence analysis; assay type: cell-based; conditions: time 40.0 min
[12] = target: Pannexin-1 (Homo sapiens) (UniProt Q96RD7); assay: Inhibition of PANX1 in human EA.hy 926 cells assessed as reduction in HOS-induced ATP release preincubated for 10 mins followed by HOS solution addition and measured after 30 mins by bioluminescence analysis; assay type: cell-based; conditions: time 40.0 min

Structure (SMILES)	Activity [10]	inhibition [11]	also measured
CC(=O)N[C@@H](CO)C(=O)N[C@@H](Cc1c[nH]c2ccccc12)C(=O)N[C@@H](CCCNC(=N)N)C(=O)N[C@@H](CCC(N)=O)C(=O)N[C@@H](C)C(=O)N[C@H]1Cc2cn(nn2)CCCC[C@@H](C(=O)N[C@@H](Cc2ccc(O)cc2)C(N)=O)NC(=O)[C@H](CC(=O)O)NC(=O)[C@H](C(C)C)NC(=O)[C@H](Cc2ccccc2)NC1=O	–	–	Activity [1]: Non-Toxic; inhibition [2]: Active; Stability [3]: Stable; Activity [4]: Non-Toxic; inhibition [5]: inactive; inhibition [6]: Active; inhibition [7]: inactive; inhibition [8]: inactive; inhibition [9]: Dose-Dependent Effect
CC(=O)N[C@@H](CO)C(=O)N[C@@H](Cc1c[nH]c2ccccc12)C(=O)N[C@@H](CCCNC(=N)N)C(=O)N[C@@H](CCC(N)=O)C(=O)N[C@@H](C)C(=O)N[C@@H]1Cc2cn(nn2)CCCC[C@@H](C(=O)N[C@@H](Cc2ccc(O)cc2)C(N)=O)NC(=O)[C@H](CC(=O)O)NC(=O)[C@H](C(C)C)NC(=O)[C@H](Cc2ccccc2)NC1=O	Non-Toxic	inactive	–
CC(=O)N[C@H]1Cc2cn(nn2)CCCC[C@@H](C(=O)N[C@@H](C)C(=O)N[C@@H](Cc2ccccc2)C(=O)N[C@H](C(=O)N[C@@H](CC(=O)O)C(=O)N[C@@H](CO)C(=O)N[C@@H](Cc2ccc(O)cc2)C(N)=O)C(C)C)NC(=O)[C@H](CCC(N)=O)NC(=O)[C@H](CCCNC(=N)N)NC(=O)[C@H](Cc2c[nH]c3ccccc23)NC1=O	–	–	Activity [1]: Non-Toxic; inhibition [2]: Active; Activity [4]: Non-Toxic; inhibition [5]: inactive; inhibition [6]: Active; inhibition [8]: inactive; inhibition [9]: Dose-Dependent Effect
CC(=O)N[C@H]1Cc2cn(nn2)CCCC[C@H](C(=O)N[C@@H](C)C(=O)N[C@@H](Cc2ccccc2)C(=O)N[C@H](C(=O)N[C@@H](CC(=O)O)C(=O)N[C@@H](CO)C(=O)N[C@@H](Cc2ccc(O)cc2)C(N)=O)C(C)C)NC(=O)[C@H](CCC(N)=O)NC(=O)[C@H](CCCNC(=N)N)NC(=O)[C@H](Cc2c[nH]c3ccccc23)NC1=O	Non-Toxic	inactive	–
CC(=O)N[C@@H](CO)C(=O)N[C@@H](Cc1c[nH]c2ccccc12)C(=O)N[C@@H](CCCNC(=N)N)C(=O)N[C@@H](CCC(N)=O)C(=O)N[C@@H](C)C(=O)N[C@@H](C)C(=O)N[C@@H](Cc1ccccc1)C(=O)N[C@H]1Cc2cn(nn2)CCCC[C@@H](C(N)=O)NC(=O)[C@H](Cc2ccc(O)cc2)NC(=O)[C@H](CO)NC(=O)[C@H](CC(=O)O)NC1=O (Ac-SWRQAAF[Pra]DSY[Lys(N3)]-NH2; triazole 8-12)	–	inactive	–
CC(=O)N[C@@H](CO)C(=O)N[C@@H](Cc1c[nH]c2ccccc12)C(=O)N[C@@H](CCCNC(=N)N)C(=O)N[C@@H](CCC(N)=O)C(=O)N[C@@H](C)C(=O)N[C@@H](C)C(=O)N[C@@H](Cc1ccccc1)C(=O)N[C@H]1Cc2cn(nn2)CCC[C@@H](C(N)=O)NC(=O)[C@H](Cc2ccc(O)cc2)NC(=O)[C@H](CO)NC(=O)[C@H](CC(=O)O)NC1=O (Ac-SWRQAAF[Pra]DSY[Orn(N3)]-NH2; triazole 8-12)	–	inactive	–
CC(=O)N[C@@H](CO)C(=O)N[C@@H](Cc1c[nH]c2ccccc12)C(=O)N[C@@H](CCCNC(=N)N)C(=O)N[C@@H](CCC(N)=O)C(=O)N[C@@H](C)C(=O)N[C@@H](C)C(=O)N[C@H]1Cc2cn(nn2)CCCC[C@@H](C(=O)O)NC(=O)[C@H](CO)NC(=O)[C@H](CC(=O)O)NC(=O)[C@H](C(C)C)NC1=O (Ac-SWRQAA[Pra]VDS[Lys(N3)]-OH; triazole 7-11)	–	inactive	–
CC(=O)N[C@@H](CO)C(=O)N[C@@H](Cc1c[nH]c2ccccc12)C(=O)N[C@@H](CCCNC(=N)N)C(=O)N[C@@H](CCC(N)=O)C(=O)N[C@@H](C)C(=O)N[C@H]1CCc2cn(nn2)CCCC[C@@H](C(=O)N[C@@H](Cc2ccc(O)cc2)C(N)=O)NC(=O)[C@H](CC(=O)O)NC(=O)[C@H](C(C)C)NC(=O)[C@H](Cc2ccccc2)NC1=O (Ac-SWRQA[Hpra]FVD[Lys(N3)]Y-NH2; triazole 6-10)	Non-Toxic	Active	–
CC(=O)N[C@@H](CO)C(=O)N[C@@H](Cc1c[nH]c2ccccc12)C(=O)N[C@@H](CCCNC(=N)N)C(=O)N[C@@H](CCC(N)=O)C(=O)N[C@@H](C)C(=O)N[C@H]1CCCCn2cc(nn2)C[C@@H](C(=O)N[C@@H](Cc2ccc(O)cc2)C(N)=O)NC(=O)[C@H](CC(=O)O)NC(=O)[C@H](C(C)C)NC(=O)[C@H](Cc2ccccc2)NC1=O (Ac-SWRQA[Lys(N3)]FVD[Pra]Y-NH2; triazole 6-10)	Non-Toxic	Active	–
CC(=O)N[C@@H](CO)C(=O)N[C@@H](Cc1c[nH]c2ccccc12)C(=O)N[C@@H](CCCNC(=N)N)C(=O)N[C@@H](CCC(N)=O)C(=O)N[C@@H](C)C(=O)N[C@H]1Cc2cn(nn2)CCC[C@@H](C(=O)N[C@@H](Cc2ccc(O)cc2)C(N)=O)NC(=O)[C@H](CC(=O)O)NC(=O)[C@H](C(C)C)NC(=O)[C@H](Cc2ccccc2)NC1=O (Ac-SWRQA[Pra]FVD[Orn(N3)]Y-NH2; triazole 6-10)	–	inactive	–
CC(=O)N[C@H]1CCc2cn(nn2)CCCC[C@@H](C(=O)N[C@@H](C)C(=O)N[C@@H](Cc2ccccc2)C(=O)N[C@H](C(=O)N[C@@H](CC(=O)O)C(=O)N[C@@H](CO)C(=O)N[C@@H](Cc2ccc(O)cc2)C(N)=O)C(C)C)NC(=O)[C@H](CCC(N)=O)NC(=O)[C@H](CCCNC(=N)N)NC(=O)[C@H](Cc2c[nH]c3ccccc23)NC1=O (Ac-[Hpra]WRQ[Lys(N3)]AFVDSY-NH2; triazole 1-5)	Non-Toxic	Active	–
CC(=O)N[C@H]1CCCCn2cc(nn2)C[C@@H](C(=O)N[C@@H](C)C(=O)N[C@@H](Cc2ccccc2)C(=O)N[C@H](C(=O)N[C@@H](CC(=O)O)C(=O)N[C@@H](CO)C(=O)N[C@@H](Cc2ccc(O)cc2)C(N)=O)C(C)C)NC(=O)[C@H](CCC(N)=O)NC(=O)[C@H](CCCNC(=N)N)NC(=O)[C@H](Cc2c[nH]c3ccccc23)NC1=O (Ac-[Lys(N3)]WRQ[Pra]AFVDSY-NH2; triazole 1-5)	Non-Toxic	Active	–
CC(=O)N[C@H]1Cc2cn(nn2)CCC[C@@H](C(=O)N[C@@H](C)C(=O)N[C@@H](Cc2ccccc2)C(=O)N[C@H](C(=O)N[C@@H](CC(=O)O)C(=O)N[C@@H](CO)C(=O)N[C@@H](Cc2ccc(O)cc2)C(N)=O)C(C)C)NC(=O)[C@H](CCC(N)=O)NC(=O)[C@H](CCCNC(=N)N)NC(=O)[C@H](Cc2c[nH]c3ccccc23)NC1=O (Ac-[Pra]WRQ[Orn(N3)]AFVDSY-NH2; triazole 1-5)	–	inactive	–
CC(C)[C@H](NC(=O)[C@H](Cc1ccccc1)NC(=O)[C@H](C)NC(=O)[C@H](C)NC(=O)[C@H](CCC(N)=O)NC(=O)[C@H](CCCNC(=N)N)NC(=O)[C@H](Cc1c[nH]c2ccccc12)NC(=O)CCCCCNC(=O)[C@@H](N)CCCCN)C(=O)N[C@@H](CC(=O)O)C(=O)N[C@@H](CO)C(=O)N[C@@H](Cc1ccc(O)cc1)C(=O)O (H-K[Ahx]WRQAAFVDSY-OH)	–	–	inhibition [12]: Active
